{"source": "patent US20130210852A1", "about": "“METHODS FOR TREATING INFECTION” (priority 2010, published 2013)", "key": {"[1]": {"test_system": "EAEC strain O42 adherence to HEp-2 cells", "assay": "HEp-2 cell attachment assay (microscopy after Wright-Giemsa staining)", "format": "cell-based, human"}, "[2]": {"test_system": "HEp-2 cells", "assay": "Cytokine arrays of HEp-2 supernatants (Panomics)", "details": "antibiotic 64 μg/ml, 24 h"}, "[3]": {"test_system": "C difficile", "assay": "Susceptibility testing of C difficile isolates (rifaximin agar dilution, rifampin E strips)"}, "[4]": {"test_system": "EAEC adherence with dialyzed conditioned medium of HEp-2 cells", "assay": "Effect of dialyzed HEp-2 supernatants on EAEC adherence", "format": "cell-based, human", "set-up": "dose or concentration left out as unconfirmed", "details": "HEp-2 treated 24 h, supernatant dialyzed; chambers with or without HEp-2 cells, 3 h", "method": "HEp-2 cells were cultured in T-175 flasks as described above. […] After 24 h, the medium was collected, loaded into regenerated cellulose dialysis tubing (cutoff, 6 to 8 kDa; Spectra/Por, Rancho Domiguez, Calif.), and dialyzed against 4 liters of PBS changed four times. Each dialysis step lasted at least 6 h and was carried out at 4° C. Dialyzed supernatants were either used immediately in adherence assays or stored at −20° C. until use.\nThe effect of supernatants on EAEC adherence was determined by mixing EAEC with the dialyzed media from the different antibiotic (or control) treatment groups and adding the bacteria to HEp-2 cells cultured in chambered slides or to chambered slides with no HEp-2 cells. Adherence was visualized microscopically as described above."}}}
{"smiles": "CO[C@H]1/C=C/O[C@@]2(C)Oc3c(C)c(O)c4c(O)c(c(/C=N/N5CCN(C)CC5)c(O)c4c3C2=O)NC(=O)/C(C)=C\\C=C\\[C@H](C)[C@H](O)[C@@H](C)[C@@H](O)[C@@H](C)[C@H](OC(C)=O)[C@@H]1C", "note": "[Rifampin]", "values": [{"measurement": "EAEC O42 adherence to HEp-2 cells (microscopy)", "setting": "[1]", "result": "adhered in the traditional stacked-brick formation"}, {"measurement": "cytokine profile of HEp-2 supernatants", "setting": "[2]", "result": "had the same profile, except that MIP5 was not detected"}, {"measurement": "MIC50 against C difficile", "setting": "[3]; 359 isolates", "result": "<2", "unit": "ng/mL"}, {"measurement": "MIC90 against C difficile", "setting": "[3]; 359 isolates", "result": 4000, "unit": "ng/mL"}, {"measurement": "MIC50 against C difficile", "setting": "[3]; 359 isolates, listed as rifampin", "result": "< 2", "unit": "ng/mL"}, {"measurement": "Isolates resistant to rifampin (n = 28), (%)", "setting": "[3]; genotype A +, B +, BT +, tcdC-del +", "result": "(7) %"}, {"measurement": "Isolates resistant to rifampin (n = 28), (%)", "setting": "[3]; genotype A +, B +, BT +, tcdC-del −", "result": "(14) %"}, {"measurement": "Isolates resistant to rifampin (n = 28), (%)", "setting": "[3]; genotype A +, B +, BT −, tcdC-del +", "result": "(18) %"}, {"measurement": "Isolates resistant to rifampin (n = 28), (%)", "setting": "[3]; genotype A +, B +, BT −, tcdC-del −", "result": "(46) %"}, {"measurement": "Isolates resistant to rifampin (n = 28), (%)", "setting": "[3]; genotype A −, B −, BT −, tcdC-del −", "result": "(14) %"}, {"measurement": "EAEC adherence after mixing with dialyzed supernatants of antibiotic-treated HEp-2 cells", "setting": "[4]", "result": "adhered to chambers independently of the presence of HEp-2 cells"}]}
